# Measurements taken from paper PMC7023466, “Novel N,N′-Disubstituted Acylselenoureas as Potential Antioxidant and Cytotoxic Agents” (Antioxidants, 2020).
# Columns and labels:
# [1] = system: HT-29 cells; experiment: Protective effects against H2O2-induced oxidative stress (MTT); format: cell-based, human; settings: for increase fold of cell survival: compound 0.03 mg/mL, 12 h
# Description: An H2O2-induced oxidative damage model on HT-29 cells was established, and the cell viability was evaluated by MTT assay, as a measurement of the antioxidant activity of the compounds. Asc was used as a positive control. Briefly, 1 × 10^4 HT-29 cells per well were grown in 96-well plates. After 12 h of incubation, DMSO; 4b, 8c, 9c, and 10b compounds; or Asc were added to each well at concentrations of 0.03 and 0.003 mg/mL, and incubated for 1 h. Subsequently, H2O2 (200, 250, and 300 µM) was added and the cells were incubated for 12 h to induce cell damage. An MTT assay was performed as mentioned previously. For each treatment, the mean cell viability was calculated from three independent experiments. The DMSO-treated controls were assigned with a cell viability value of 100% (Vcontrol). The results are expressed as the increase fold of cell survival, as follows:(3) Increase fold of cell survival = (Vsample−Vsample + H2O2)/VControl−VH2O2 where Vsample refers to the viability of the cells only treated with the corresponding compound, VH2O2 refers to the viability of the HT-29 cells exposed to H2O2, and Vsample + H2O2 refers to the cell survival of each treatment with a compound and H2O2. The data are expressed as increase fold of cell survival ± standard error of the mean (SEM) in at least three independent experiments performed in quadruplicates.
# [2] = system: MCF-7 cells; experiment: MTT cell viability assay, MCF-7; format: cell-based, human; settings: Homo sapiens, MCF7, 48 h, read-out: Growth (%) MCF-7
# Description: (§1) The cell viability assay of each compound was carried out using the MTT assay. Each compound was dissolved in dimethyl sulfoxide (DMSO) at a concentration of 0.01 M. Serial dilutions were prepared with a non-supplemented culture medium. The effect of each compound on the cell viability was determined at two different concentrations (10 and 50 µM) in MCF-7, HTB-54, and HT-29 cells. In addition, the selected compounds were tested at six different concentrations between 0.1–100 µM in MCF-7, T47D, H1299, HTB-54, and 184B5 cells.
# (§2) Briefly, 1 × 10^4 tumor cells/well or 2 × 10^4 non-tumorigenic cells/well were grown in 96-well plates for 12 h. Then, these cells were incubated with either DMSO (control) or a different concentration of each of the tested compounds for 48 h. Three hours before the termination point, 20 µL of MTT were added to measure the cellular viability. The resultant formazan crystals were dissolved in 50 µL of DMSO, and the absorbance was measured at 570 and 630 nm. The results are expressed as IC50, the half maximal inhibitory concentration. This value was calculated using OriginPro 8.5.1. software (OriginLab, Northampton, MA, USA) by nonlinear curve fitting. Furthermore, the selectivity index (SI) was calculated as the ratio of the IC50 values determined for the non-malignant and the tumor cells (IC50 (184B5)/IC50 (MCF-7). The data were obtained from at least three independent experiments performed in quadruplicates.
# [3] = system: HT-29 cells; experiment: MTT cell viability assay, HT-29; format: cell-based; settings: Homo sapiens, 48 h, read-out: Growth (%) HT-29
# Description: as §1, §2
# [4] = system: HTB-54 cells; experiment: MTT cell viability assay, HTB-54; format: cell-based; settings: Homo sapiens, HTB-54, 48 h, read-out: Growth (%) HTB-54
# Description: as §1, §2
# [5] = design: method as in doi:10.1007/s11172-013-0228-5; settings: conditions not tested by the authors; cited from earlier work
smiles,measurement,setting,value
"O=C1O[C@H]([C@@H](O)CO)C(O)=C1O [Asc, Ascorbic acid, reference compound]",protective effect against H2O2-induced oxidative stress,[1]; 0.003 mg/mL,disappeared
COc1ccc(NC(=[Se])NC(=O)c2cc3ccccc3s2)cc1 [Compound 9c],increase fold of cell survival,[1]; H2O2 200 µM,≤ 0.8 fold
same,increase fold of cell survival,[1]; H2O2 250 µM,≤ 1.7 fold
same,increase fold of cell survival,[1]; H2O2 300 µM,up to 3.6 fold
same,activity at 10 µM,[2]; 10 μM,63%
same,activity at 50 µM,[2]; 50 μM,49.2%
same,activity at 10 µM,[3]; 10 μM,47.9%
same,activity at 50 µM,[3]; 50 μM,37.3%
same,activity at 10 µM,[4]; 10 μM,64.2%
same,activity at 50 µM,[4]; 50 μM,7.1%
O=[Se]([O-])[O-].[Na+].[Na+] [sodium selenite],DPPH radical scavenging activity,[5],only showed DPPH radical scavenging activity at pH 3.0
